{
  "source": "patent US20040009196A1",
  "about": "“Use of dhea and some of its derivatives in a cosmetic composition for preventing or treating dermal atrophy” (priority 2000, published 2004)",
  "key": {"[1]": {"test_system": "skin equivalent sold by the company EPISKIN", "assay": "Epidermal differentiation in reconstructed epidermis: transglutaminase and filaggrin immunofluorescence, histological analysis", "format": "cell-based", "conditions": "2 μl of DHEA at 1×10^−4 M in ethanol, topical, every 48 hours for 6 days"}, "[2]": {"test_system": "skin equivalent sold by the company EPISKIN", "assay": "Topical DHEA on reconstructed epidermis: epidermal lipid analysis by HPTLC with [14C]acetate labelling", "format": "cell-based", "conditions": "2 μl of DHEA at 1×10^−4 M in ethanol, every 48 hours for 6 days, vs ethanol control", "procedure": "In this example, 2 μl of DHEA at 1×10^−4 M in ethanol were applied every 48 hours, for 6 days, to a skin equivalent sold by the company EPISKIN (LYON, France), after culturing it for 7 days and incubating overnight with [^14C]acetate (2 μCi/ml). The culture and test media are those contained in the kit sold by the supplier. The control consists of an identical epidermal equivalent undergoing a topical application of 2 μl of ethanol diluted 1/1 000.\nAt the end of the incubation, the epidermal equivalent is detached from its collagenic support. The preparation of the lipids of the epidermal equivalent, and their analysis by HPTLC or high performance thin-layer chromatography, are carried out according to the technique and with the buffers described by M. Ponec (1991, Adv. Lipid Res., 24: 83-117). At the end of the migration of the lipids, autoradiography of the chromatography plate is carried out overnight."}},
  "data": [
    {"compound": "C[C@]12CC[C@H](O)CC1=CC[C@@H]1[C@@H]2CC[C@]2(C)C(=O)CC[C@@H]12", "note": "[DHEA, dehydroepiandrosterone]", "values": [
      {"measurement": "histological analysis: number of granular layers or parakeratosis", "setting": "[1]", "value": "no increase in the number of granular layers or in parakeratosis"},
      {"measurement": "modification in epidermal differentiation (expression of transglutaminase and of filaggrin, immunofluorescence labelling)", "setting": "[1]", "value": "no modification in epidermal differentiation"},
      {"measurement": "increase in the epidermal content of phospholipids compared with the control", "setting": "[2]", "value": 35, "unit": "%"}
    ]}
  ]
}
